Our source for the IC50, MIC and T1/2 in clinic values is patent US10167283B2, “β-lactamase inhibitors and uses thereof” (priority 2015, dated 2019).

For one data set, the target named is T1, OXA-10 (Pseudomonas aeruginosa, UniProt P14489).
T1 construct: purchased
As to the kind of experiment: β-lactamase inhibition, Nitrocefin hydrolysis. The class given is biochemical. The conditions noted are these: Experiment 3; enzyme 10 nM, Nitrocefin 0.1 mM; read-out: IC50 Type D OXA-10. The essentials:
(§1)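 Nitrocefin hydrolysis by each β-lactamase was followed as real-time absorbance, with the enzyme stock diluted 1000-fold in reaction solution. Inhibitors were tested at final concentrations from 100 μM down to 0.095 nM in four-fold steps. IC50 was calculated from the hydrolysis rates across inhibitor concentrations.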

In data set [1] the test system is Klebsiella pneumoniae 7450kpn-597 (KPC, ESBLs). As to the kind of experiment: In vitro antibacterial activity on clinically separated CRE strain, agar dilution MIC. The settings on record: Table 3, 7450kpn-597 Klebsiella pneumoniae. Type of data set: cell-based. The essentials: (§2)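 Susceptibility is tested on agar by dilution as set out in CLSI M100-S23. The value is the lowest inhibitory concentration, μg/mL.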
Background: In agar dilution the substance is mixed into plates at graded concentrations.

Data set [2] concerns Citrobacter freundii 7521cfr-169 (NDM, ESBLs, AmpC). Described as above. The settings on record: Table 3, 7521cfr-169 Citrobacter freundii. The class given is cell-based. A digest of the protocol: as §2
Data set [3] has as its system Citrobacter freundii 7520cfr-167 (NDM, OXA-10, ESBLs). Described as above. Type of data set: cell-based. The settings on record: Table 3, 7520cfr-167 Citrobacter freundii. The essentials:
as §2

Data set [4] relates to Klebsiella pneumoniae 7460kpn-607 (NDM, ESBLs). Described as above. The conditions noted are these: Table 3, 7460kpn-607 Klebsiella pneumoniae. The class given is cell-based. The essentials: as §2
Data set [5] has as its system Klebsiella pneumoniae 7484kpn-631 (IMP, ESBLs). The description is as above. The class given is cell-based. The essentials:
as §2

The subject of data set [6] is Enterobacter cloacae 7498ecl-299 (ESBLs, AmpC). The description is as above. Type of data set: cell-based. The conditions noted are these: Table 3, 7498ecl-299 Enterobacter cloacae. The essentials: as §2
Data set [7] has as its system Klebsiella pneumoniae 7526kpn-640 (KPC, ESBLs). Described as above. Type of data set: cell-based. The settings on record: Table 3, 7526kpn-640 Klebsiella pneumoniae. The essentials: as §2
Data set [8] concerns Klebsiella pneumoniae 7477kpn-624 (NDM, ESBLs). The data set is described as above. Type of data set: cell-based. The settings on record: Table 3, 7477kpn-624 Klebsiella pneumoniae. The essentials: as §2
Data set [9] has as its system Enterobacter cloacae 7511ecl-312 (NDM, ESBLs, AmpC). The data set is described as above. Type of data set: cell-based. The settings on record: Table 3, 7511ecl-312 Enterobacter cloacae. The essentials: as §2
In data set [10] the test system is Klebsiella pneumoniae 7463kpn-610 (ESBLs). Described as above. The class given is cell-based. The essentials:
as §2

Data set [11] relates to Escherichia coli 7438eco-639 (NDM, ESBLs). Described as above. Type of data set: cell-based. The conditions noted are these: Table 3, 7438eco-639 Escherichia coli. The essentials:
as §2

The target in the next data set is T2, TEM-1 (Escherichia coli, UniProt P62593).
T2 construct: purchased
T2 sequence (P62593 24-286 limits assumed): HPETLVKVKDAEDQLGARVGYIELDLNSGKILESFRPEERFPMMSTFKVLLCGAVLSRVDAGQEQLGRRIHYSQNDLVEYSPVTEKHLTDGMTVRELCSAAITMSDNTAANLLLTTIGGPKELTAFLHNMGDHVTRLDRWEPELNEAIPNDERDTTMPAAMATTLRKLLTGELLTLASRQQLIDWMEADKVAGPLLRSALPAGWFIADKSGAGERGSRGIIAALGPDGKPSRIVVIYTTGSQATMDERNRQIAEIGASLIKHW
Put plainly: β-lactamase inhibition, Nitrocefin hydrolysis. The class given is biochemical. The conditions noted are these: Nitrocefin 0.1 mM. The essentials:
as §1

Another data set has as its target T3, CTX-M-1 (Escherichia coli, UniProt P28585).
T3 construct: purchased
As to the kind of experiment: β-lactamase inhibition, Nitrocefin hydrolysis. The class given is biochemical. The settings on record: Experiment 2; enzyme 0.2 nM, Nitrocefin 0.1 mM. The essentials: as §1

Another data set has as its target T4, KPC-2 (Klebsiella pneumoniae, UniProt Q9F663).
T4 construct: purchased
Put plainly: β-lactamase inhibition, Nitrocefin hydrolysis. The class given is biochemical. The settings on record: Nitrocefin 0.1 mM. The essentials:
as §1

For data set [12] the following is noted: cited from earlier work.
Setting [13] is: Table 3, 7484kpn-631 Klebsiella pneumoniae.
[14] abbreviates: Table 3, 7463kpn-610 Klebsiella pneumoniae.

SMILES strings stand for the structures. Counter-ions that a name gives are not always drawn. Like-named read-outs stand apart in the source and are kept apart here.

T4 sequence (Q9F663 25-293, looked up, species assumed): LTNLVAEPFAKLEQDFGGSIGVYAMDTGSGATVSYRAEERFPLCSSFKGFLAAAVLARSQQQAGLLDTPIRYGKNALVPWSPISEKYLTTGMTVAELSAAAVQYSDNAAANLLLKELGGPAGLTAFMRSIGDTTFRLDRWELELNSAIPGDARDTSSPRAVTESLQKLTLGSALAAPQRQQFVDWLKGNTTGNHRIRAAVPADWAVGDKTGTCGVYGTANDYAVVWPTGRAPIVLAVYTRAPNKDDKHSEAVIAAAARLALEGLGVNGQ
T1 sequence (P14489 20-266, species assumed): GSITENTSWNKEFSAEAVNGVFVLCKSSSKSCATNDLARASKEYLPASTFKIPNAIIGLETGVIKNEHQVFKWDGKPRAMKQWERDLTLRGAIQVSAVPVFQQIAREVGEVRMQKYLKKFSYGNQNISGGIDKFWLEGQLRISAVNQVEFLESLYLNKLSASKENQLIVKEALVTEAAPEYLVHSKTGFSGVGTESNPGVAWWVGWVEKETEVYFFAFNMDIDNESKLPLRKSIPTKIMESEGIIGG
T3 sequence (P28585 29-291): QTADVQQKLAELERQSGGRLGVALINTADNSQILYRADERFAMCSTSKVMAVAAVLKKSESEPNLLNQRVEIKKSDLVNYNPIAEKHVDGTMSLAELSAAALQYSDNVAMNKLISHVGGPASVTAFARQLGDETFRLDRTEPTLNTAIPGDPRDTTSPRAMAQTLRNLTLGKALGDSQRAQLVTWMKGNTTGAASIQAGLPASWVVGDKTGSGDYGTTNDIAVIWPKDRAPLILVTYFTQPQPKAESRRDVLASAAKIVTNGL

By IC50 is commonly meant the concentration needed to halve the response being measured. For orientation: MIC means the least concentration at which growth counts as inhibited. Read a high MIC as a less susceptible organism. Turning to `NC(=O)[C@@H]1CC[C@@H]2CN1C(=O)N2OS(=O)(=O)O` [AVI sodium salt, Avibactam, reference compound], at OXA-10, the IC50 stood at 25900 nM. Further, the MIC in [1] was more than 8 µg/mL; in data set [2], 8 µg/mL; in data set [3] it was more than 8 µg/mL; in data set [4], more than 8 µg/mL; in data set [5] (setting [13]), more than 8 µg/mL; in data set [5] (first Table 4, 7484kpn-631 Klebsiella pneumoniae), 16 µg/mL. The MIC was more than 8 µg/mL in data set [6]; more than 8 µg/mL in data set [7]; more than 8 µg/mL in data set [8]; more than 8 µg/mL in data set [9]; 8 µg/mL in data set [10] (setting [14]); 32 µg/mL in data set [10] (first Table 4, 7463kpn-610 Klebsiella pneumoniae). Further, in data set [11], inhibition of growth (MIC) required 8 µg/mL.

As to `O=C(NC1CC2(CNC2)C1)[C@@H]1CC[C@@H]2CN1C(=O)N2OS(=O)(=O)O` [Compound 2, (2S,5R)-2-((2-azaspiro[3.3]heptan-6-yl)carbamoyl)-7-oxo-1,6-diazabicyclo[3.2.1]octan-6-yl hydrogen sulfate], the IC50 at TEM-1 (Experiment 1, enzyme 0.25 nM, read-out: IC50 ESBLs type TEM-1) was found to be 28.5 nM; on TEM-1 (Experiment 2, enzyme 1 nM, read-out: IC50 TEM-1), 15.2 nM; against CTX-M-1, 42.3 nM; on KPC-2 (Experiment 1, read-out: IC50 Type A KPC-2), 61.1 nM; at KPC-2 (Experiment 2, enzyme 1.28 nM, read-out: IC50 KPC-2) it was 34.7 nM; at OXA-10, 12200 nM. Further, the MIC in data set [1], in data set [2], in [3], in [4], in [5] (setting [13]) and in data set [6] was 2 µg/mL each time. The MIC was found to be 4 µg/mL in [7]; 2 µg/mL in [8]; 2 µg/mL in data set [9]; 2 µg/mL in data set [10] (setting [14]); 2 µg/mL in data set [11].

Turning to `O=C(NC1CCNCC1)[C@@H]1CC[C@@H]2CN1C(=O)N2OS(=O)(=O)O` [MK-7655, reference compound], the T1/2 in clinic in data set [12] is recorded as 1.7 h. The MIC in data set [1], in data set [2], in data set [3], in [4], in data set [5] (setting [13]) and in [6] was more than 8 µg/mL in each case. In addition, the MIC in data set [7], in data set [8], in data set [9], in [10] (setting [14]) and in [11] was more than 8 µg/mL throughout.
